Reference: US11298345B2, “Compounds that modulates AMPA receptor function” (University College Cardiff Consultants Limited, priority 2018, dated 2022)

Target: T1, human GluR2 flip (unedited) AMPA receptor subunit (Homo sapiens, UniProt P42262)
T1 construct: host or cells: HEK 293
Assay: AMPA calcium ion influx assay
Format: cell-based
Details: HEK293; test compound concentration of 10 μM; HEK 293 cells expressing human GluR2 flip; glutamate stimulus; read-out: Mean % response at 10 μM
Text: The potentiation of AMPA receptors by the compounds of the invention may be assessed by measuring calcium ion influx via AMPA receptors upon exposure of the receptor to glutamate in the presence of a test compound. One such assay is the calcium ion influx assay described in the Examples using cells which express human GluR2 flip (GluA2 flip) AMPA receptor subunits which form functional homotetrameric AMPA receptors. The GluA2 flip sub-units are highly expressed in cortical and sub-cortical brain tissue (Ward et al., 2010, ibid).
The ability of the compounds of the invention to potentiate glutamate receptor-mediated response was determined using fluorescent calcium-indicator dye.
96 well plates were prepared containing confluent monolayer of HEK 293 cells stably expressing human GluR2 flip (unedited) AMPA receptor subunit (obtained from GlaxoSmithKline). These cells form functional homotetrameric AMPA receptors. The tissue culture medium in the wells was discarded and the wells were each washed three times with standard buffer for the cell line ([…] NaCl, 5 mM KCl, 1 mM MgCl2, 2 mM CaCl2, 20 mM N-[2-hydroxyethyl]-piperazine-N-[2-ethanesulfonic acid (HEPES), 5.5 mM glucose, pH7.3). The plates were then incubated for 60 minutes in the dark with 2 μM Calcium 6 dye (Molecular Devices). After incubation, each well was washed three times with buffer (80 μl).
Compounds of the invention were dissolved in dimethylsulfoxide (DMSO) at a stock concentration of 10 mM. These solutions were further diluted with DMSO. Each dilution (4 μl) to another compound plate and buffer (200 μl) was added. An agonist stimulus plate (glutamate) was prepared by dissolving sodium glutamate in water to give a concentration of 100 mM. This solution was diluted with buffer to give a final concentration of 500 μM and dispensed into another 96 well plate (200 μl/well).
The cell plate was then transferred to a fluorescence imaging plate reader such as the Flexstation 3 (Molecular Devices). A baseline fluorescence was taken over a 10 to 240 second period and then 40 μl from each plate containing a compound of the invention made up in standard buffer solution was added. Volumes were chosen to give a final concentration range of 40 μM to 4 μM. The fluorescence was then read over a 4 minute period. The activities of the compounds were determined by measuring peak fluorescence after the last addition. The activity can also be expressed relative to the fluorescence increase induced by cyclothiazide at their maximum response (i.e. greater than 40 μM).

T1 sequence (P42262 22-883 isoform P42262-2 limits assumed): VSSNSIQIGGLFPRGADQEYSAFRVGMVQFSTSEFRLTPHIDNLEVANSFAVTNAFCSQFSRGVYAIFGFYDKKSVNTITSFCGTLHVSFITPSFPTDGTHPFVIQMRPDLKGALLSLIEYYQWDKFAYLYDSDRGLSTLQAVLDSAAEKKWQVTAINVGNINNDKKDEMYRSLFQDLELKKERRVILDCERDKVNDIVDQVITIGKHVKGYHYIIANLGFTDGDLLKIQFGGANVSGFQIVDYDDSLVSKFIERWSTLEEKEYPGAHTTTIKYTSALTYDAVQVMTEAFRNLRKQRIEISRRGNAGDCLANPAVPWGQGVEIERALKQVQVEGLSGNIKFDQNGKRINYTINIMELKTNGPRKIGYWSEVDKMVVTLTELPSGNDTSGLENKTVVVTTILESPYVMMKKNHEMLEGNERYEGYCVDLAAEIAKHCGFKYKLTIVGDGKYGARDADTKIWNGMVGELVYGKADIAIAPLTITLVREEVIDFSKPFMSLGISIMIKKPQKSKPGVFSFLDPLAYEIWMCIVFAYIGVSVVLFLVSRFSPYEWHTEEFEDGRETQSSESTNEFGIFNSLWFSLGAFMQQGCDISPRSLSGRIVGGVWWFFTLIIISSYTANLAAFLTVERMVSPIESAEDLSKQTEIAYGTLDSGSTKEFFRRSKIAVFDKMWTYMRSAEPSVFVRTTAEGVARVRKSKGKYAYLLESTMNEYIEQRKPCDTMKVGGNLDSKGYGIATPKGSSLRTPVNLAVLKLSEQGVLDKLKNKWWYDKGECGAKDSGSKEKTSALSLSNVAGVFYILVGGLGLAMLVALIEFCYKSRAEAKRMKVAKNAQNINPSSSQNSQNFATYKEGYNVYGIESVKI

Question: O=C1COCCN1Cc1ccc(-c2nc(C(F)(F)F)ccc2CO)cc1 [Example 10, 4-[[4-[3-(Hydroxymethyl)-6-(trifluoromethyl)-2-pyridyl]phenyl]methyl]morpholin-3-one] was tested. Which activation at 10 µM did it give?
Answer: 3%

Question: For O=C1CCCN1Cc1ccc(-c2nc(C(F)F)ccc2CO)cc1 [Example 28, 1-[[4-[6-(Difluoromethyl)-3-(hydroxymethyl)-2-pyridyl]phenyl]methyl]pyrrolidin-2-one], which activation at 10 µM is on record?
Answer: 2%

Question: How did the activation at 10 µM turn out when Cc1cc(C(F)(F)F)nc(-c2ccc(CN3CCCC3=O)nc2)c1CF [Example 22, 1-[[5-[3-(Fluoromethyl)-4-methyl-6-(trifluoromethyl)-2-pyridyl]-2-pyridyl]methyl]pyrrolidin-2-one] was run?
Answer: 93%

Question: Cc1nc(C(F)(F)F)nc(-c2ccc(CN3CCCC3=O)cc2)c1C [Example 6, 1-[[4-[5,6-Dimethyl-2-(trifluoromethyl)pyrimidin-4-yl]phenyl]methyl]pyrrolidin-2-one] was tested. Which activation at 10 µM did it give?
Answer: 29%

Question: O=C1CCCN1Cc1ccc(-c2ccc(CF)c(C(F)(F)F)n2)cc1 [Example 16, 1-[[4-[5-(Fluoromethyl)-6-(trifluoromethyl)-2-pyridyl]phenyl]methyl]pyrrolidin-2-one] was tested. Which activation at 10 µM did it give?
Answer: 28%

Question: For Cc1cc(C(F)(F)F)nc(-c2ccc(CN3CCCOCC3=O)cc2)c1CO [Example 12, 4-[[4-[3-(Hydroxymethyl)-4-methyl-6-(trifluoromethyl)-2-pyridyl]phenyl]methyl]-1,4-oxazepan-3-one], which activation at 10 µM is on record?
Answer: 9%

Question: O=C1CCCN1Cc1ccc(-c2cc(CO)cc(C(F)(F)F)n2)cc1 [Example 25, 1-[[4-[4-(Hydroxymethyl)-6-(trifluoromethyl)-2-pyridyl]phenyl]methyl]pyrrolidin-2-one] was tested. Which activation at 10 µM did it give?
Answer: 8%

Question: With O=C1COCCN1Cc1ccc(-c2ccc(CO)c(C(F)(F)F)n2)cc1 [Example 8, 4-[[4-[5-(Hydroxymethyl)-6-(trifluoromethyl)-2-pyridyl]phenyl]methyl]morpholin-3-one] as the molecule, how does the activation at 10 µM read?
Answer: 14%

Question: With O=C1CCCN1Cc1ccc(-c2nc(C(F)(F)F)ncc2CF)cc1 [Example 18, 1-[[4-[5-(Fluoromethyl)-2-(trifluoromethyl)pyrimidin-4-yl]phenyl]methyl]pyrrolidin-2-one] as the molecule, how does the activation at 10 µM read?
Answer: 5%

Question: How did the activation at 10 µM turn out when O=C1COCCN1Cc1ccc(-c2nc(C(F)(F)F)ccc2CF)cc1 [Example 21, 4-[[4-[3-(Fluoromethyl)-6-(trifluoromethyl)-2-pyridyl]phenyl]methyl]morpholin-3-one] was run?
Answer: 16%

Question: How did the activation at 10 µM turn out when Cc1cc(C(F)(F)F)nc(-c2ccc(CN3CCCC3=O)cc2)n1 [Example 27, 1-[[4-[4-Methyl-6-(trifluoromethyl)pyrimidin-2-yl]phenyl]methyl]pyrrolidin-2-one] was run?
Answer: 27%

Question: With N#Cc1ccc(C(F)(F)F)nc1-c1ccc(CN2CCCC2=O)cc1 [Example 7, 2-[4-[(2-Oxopyrrolidin-1-yl)methyl]phenyl]-6-(trifluoromethyl)pyridine-3-carbonitrile] as the molecule, how does the activation at 10 µM read?
Answer: 21%

Question: How did the activation at 10 µM turn out when Cc1cc(C(F)(F)F)nc(-c2ccc(CN3CCCC3=O)cc2)c1C#N [Example 5, 4-Methyl-2-[4-[(2-oxopyrrolidin-1-yl)methyl]phenyl]-6-(trifluoromethyl)pyridine-3-carbonitrile] was run?
Answer: 99%

Question: O=C1CCCN1Cc1ccc(-c2nc(C(F)(F)F)ccc2CO)cc1 [Example 4, 1-[[4-[3-(Hydroxymethyl)-6-(trifluoromethyl)-2-pyridyl]phenyl]methyl]pyrrolidin-2-one] was tested. Which activation at 10 µM did it give?
Answer: 9%

Question: Cc1cc(C(F)(F)F)nc(-c2ccc(CN3CCOCC3=O)cc2)c1C#N [Example 24, 4-Methyl-2-[4-[(3-oxomorpholin-4-yl)methyl]phenyl]-6-(trifluoromethyl)pyridine-3-carbonitrile] was tested. Which activation at 10 µM did it give?
Answer: 39%

Question: With Cc1cc(C(F)(F)F)nc(-c2ccc(CN3CCOCC3=O)cc2)c1CF [Example 20, 4-[[4-[3-(Fluoromethyl)-4-methyl-6-(trifluoromethyl)-2-pyridyl]phenyl]methyl]morpholin-3-one] as the molecule, how does the activation at 10 µM read?
Answer: 112%

Question: How did the activation at 10 µM turn out when Cc1cc(C(F)(F)F)nc(-c2ccc(CN3CCCC3=O)nc2)c1CO [Example 14, 1-[[5-[3-(Hydroxymethyl)-4-methyl-6-(trifluoromethyl)-2-pyridyl]-2-pyridyl]methyl]pyrrolidin-2-one] was run?
Answer: 5%

Question: N#Cc1ccc(C(F)(F)F)nc1-c1ccc(CN2CCCC2=O)nc1 [Example 15, 2-[6-[(2-Oxopyrrolidin-1-yl)methyl]-3-pyridyl]-6-(trifluoromethyl)pyridine-3-carbonitrile] was tested. Which activation at 10 µM did it give?
Answer: 6%

Question: O=C1CCCN1Cc1ccc(-c2nc(C(F)(F)F)ccc2CF)cc1 [Example 19, 1-[[4-[3-(Fluoromethyl)-6-(trifluoromethyl)-2-pyridyl]phenyl]methyl]pyrrolidin-2-one] was tested. Which activation at 10 µM did it give?
Answer: 70%

Question: With N#Cc1ccc(C(F)(F)F)nc1-c1ccc(CN2CCOCC2=O)cc1 [Example 11, 2-[4-[(3-Oxomorpholin-4-yl)methyl]phenyl]-6-(trifluoromethyl)pyridine-3-carbonitrile] as the molecule, how does the activation at 10 µM read?
Answer: 11%

Question: With CNC(=O)c1c(C)cc(C(F)(F)F)nc1-c1ccc(CN2CCCC2=O)cc1 [Example 3, N,4-Dimethyl-2-[4-[(2-oxopyrrolidin-1-yl)methyl]phenyl]-6-(trifluoromethyl)pyridine-3-carboxamide] as the molecule, how does the activation at 10 µM read?
Answer: 4%

Question: Cc1cc(C(F)(F)F)nc(-c2ccc(CN3CCOCC3=O)cc2)c1CO [Example 9, 4-[[4-[3-(Hydroxymethyl)-4-methyl-6-(trifluoromethyl)-2-pyridyl]phenyl]methyl]morpholin-3-one] was tested. Which activation at 10 µM did it give?
Answer: 14%

Question: With Cc1cc(C(F)(F)F)nc(-c2ccc(CN3CCOCCC3=O)cc2)c1CO [Example 13, 4-[[4-[3-(Hydroxymethyl)-4-methyl-6-(trifluoromethyl)-2-pyridyl]phenyl]methyl]-1,4-oxazepan-5-one] as the molecule, how does the activation at 10 µM read?
Answer: 5%

Question: How did the activation at 10 µM turn out when Cc1cc(C(F)(F)F)nc(-c2ccc(CN3CCCC3=O)cc2)c1CO [Example 2, 1-[[4-[3-(Hydroxymethyl)-4-methyl-6-(trifluoromethyl)-2-pyridyl]phenyl]methyl]pyrrolidin-2-one] was run?
Answer: 41%

Question: How did the activation at 10 µM turn out when O=C1CCCN1Cc1ccc(-c2ccc(CO)c(C(F)(F)F)n2)cc1 [Example 1, 1-[[4-[5-(Hydroxymethyl)-6-(trifluoromethyl)-2-pyridyl]phenyl]methyl]pyrrolidin-2-one] was run?
Answer: 33%

Question: Cc1cc(C(F)(F)F)nc(-c2ccc(CN3CCCC3=O)cc2)c1CF [Example 17, 1-[[4-[3-(Fluoromethyl)-4-methyl-6-(trifluoromethyl)-2-pyridyl]phenyl]methyl]pyrrolidin-2-one] was tested. Which activation at 10 µM did it give?
Answer: 111%

Question: For COCc1cc(-c2ccc(CN3CCCC3=O)cc2)nc(C(F)(F)F)c1 [Example 26, 1-[[4-[4-(Methoxymethyl)-6-(trifluoromethyl)-2-pyridyl]phenyl]methyl]pyrrolidin-2-one], which activation at 10 µM is on record?
Answer: 4%

Question: How did the activation at 10 µM turn out when O=C1CCCN1Cc1ccc(-c2nc(C(F)(F)F)ccc2CF)cn1 [Example 23, 1-[[5-[3-(Fluoromethyl)-6-(trifluoromethyl)-2-pyridyl]-2-pyridyl]methyl]pyrrolidin-2-one] was run?
Answer: 9%
